From patent US6376497B1, “Antifungal azole derivatives having a fluorinated vinyl group and process for preparing same” (Korea Research Institute of Chemical Technology, priority 1999, dated 2002)

Experiments:
Experiment in all cases: In vitro antifungal activity, microbroth dilution MIC
Format in all cases: cell-based
[1] = test system: Aspergillus niger A. 16404; settings: A. niger A. 16404, RPMI-1640, 35° C., 4 to 48 hours
Method in brief: (§1)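 Broth microdilution adapted from NCCLS M27, in RPMI-1640 with 0.165 M MOPS, pH 7.0. Yeast or mould inoculum at 2×10^3 CFU/ml was mixed 1:1 with DMSO-derived compound solutions (200 to 0.10 μg/ml before mixing) and incubated at 35 °C for 4 to 48 h. MIC was the concentration showing no growth.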

[2] = test system: Cryptococcus neoformans IFM. 40092; settings: Cry. neoformans IFM. 40092, RPMI-1640, 35° C., 4 to 48 hours
Method in brief: as §1

[3] = test system: Candida albicans A. 10231; settings: C. albicans A. 10231, RPMI-1640, 35° C., 4 to 48 hours
Method in brief: as §1

[4] = test system: Candida pseudotropicalis K. 11658; settings: C. pseudotropicalis K. 11658, RPMI-1640, 35° C., 4 to 48 hours
Method in brief: as §1

Candida albicans C1-2 = settings: C. albicans C1-2, RPMI-1640, 35° C., 4 to 48 hours
Method in brief: as §1

Candida krusei K. 11655 = settings: C. krusei K. 11655, RPMI-1640, 35° C., 4 to 48 hours
Method in brief: as §1

[5] = test system: Torulopsis glabrata B. 16205; settings: T. glabrata B. 16205, RPMI-1640, 35° C., 4 to 48 hours
Method in brief: as §1

[6] = test system: Trichophyton mentagrophytes B. 32663; settings: T. mentagrophytes B. 32663, RPMI-1640, 35° C., 4 to 48 hours
Method in brief: as §1

[7] = test system: Cryptococcus neoformans B. 42419; settings: Cry. neoformans B. 42419, RPMI-1640, 35° C., 4 to 48 hours
Method in brief: as §1

[8] = test system: Trichophyton mentagrophytes A. 9129; settings: T. mentagrophytes A. 9129, RPMI-1640, 35° C., 4 to 48 hours
Method in brief: as §1

[9] = test system: Cryptococcus neoformans A. 34144; settings: Cry. neoformans A. 34144, RPMI-1640, 35° C., 4 to 48 hours
Method in brief: as §1

[10] = test system: Candida tropicalis A. 13803; settings: C. tropicalis A. 13803, RPMI-1640, 35° C., 4 to 48 hours
Method in brief: as §1

[11] = test system: Aspergillus furnigatus B. 19119; settings: A furnigatus B. 19119, RPMI-1640, 35° C., 4 to 48 hours
Method in brief: as §1

[12] = test system: Candida albicans IFO. 1385; settings: C. albicans IFO. 1385, RPMI-1640, 35° C., 4 to 48 hours
Method in brief: as §1

[13] = test system: Candida parapsitosis A. 7330; settings: C. parapsitosis A. 7330, RPMI-1640, 35° C., 4 to 48 hours
Method in brief: as §1

Row | Compound | Minimal inhibitory concentration (MIC) [1] | Minimal inhibitory concentration (MIC) [2] | Minimal inhibitory concentration (MIC) [3] | Minimal inhibitory concentration (MIC) [4] | Minimal inhibitory concentration (MIC) (Candida albicans C1-2) | Minimal inhibitory concentration (MIC) (Candida krusei K. 11655) | Minimal inhibitory concentration (MIC) [5] | Minimal inhibitory concentration (MIC) [6] | Minimal inhibitory concentration (MIC) [7] | Minimal inhibitory concentration (MIC) [8] | Minimal inhibitory concentration (MIC) [9] | Minimal inhibitory concentration (MIC) [10] | Minimal inhibitory concentration (MIC) [11] | Minimal inhibitory concentration (MIC) [12] | Minimal inhibitory concentration (MIC) [13]
1 | FC(OCC1COC(Cn2ccnc2)(c2ccc(F)cc2F)O1)=C(c1cccc(C(F)(F)F)c1)C(F)(F)F (mixture of isomers) [Ex. 58] | >100 µg/mL | 0.39 µg/mL | 25.0 µg/mL | 50.0 µg/mL | 25.0 µg/mL | 100 µg/mL | 6.25 µg/mL | 6.25 µg/mL | 1.56 µg/mL | 12.5 µg/mL | 1.56 µg/mL | >100 µg/mL | 25.0 µg/mL | 0.78 µg/mL | >100 µg/mL
2 | FC(OCC1COC(Cn2ccnc2)(c2ccc(F)cc2F)O1)=C(c1ccc(C(F)(F)F)cc1)C(F)(F)F (mixture of isomers) [Ex. 59] | >100 µg/mL | 0.78 µg/mL | 12.5 µg/mL | 25.0 µg/mL | 25.0 µg/mL | 50.0 µg/mL | 3.13 µg/mL | 12.5 µg/mL | 3.13 µg/mL | 25.0 µg/mL | 3.13 µg/mL | >100 µg/mL | 50.0 µg/mL | 0.78 µg/mL | >100 µg/mL
3 | COc1cccc(C(=C(F)OCC2COC(Cn3ccnc3)(c3ccc(F)cc3F)O2)C(F)(F)F)c1 (mixture of isomers) [Ex. 60] | 100 µg/mL | 0.20 µg/mL | 12.5 µg/mL | 100 µg/mL | 12.5 µg/mL | >100 µg/mL | 6.25 µg/mL | 3.13 µg/mL | 1.56 µg/mL | 6.25 µg/mL | 1.56 µg/mL | 100 µg/mL | 12.5 µg/mL | 0.78 µg/mL | >100 µg/mL
4 | COc1ccc(C(=C(F)OCC2COC(Cn3ccnc3)(c3ccc(F)cc3F)O2)C(F)(F)F)cc1 (mixture of isomers) [Ex. 61] | 100 µg/mL | 0.20 µg/mL | 12.5 µg/mL | 100 µg/mL | 12.5 µg/mL | >100 µg/mL | 6.25 µg/mL | 3.13 µg/mL | 1.56 µg/mL | 6.25 µg/mL | 1.56 µg/mL | 100 µg/mL | 12.5 µg/mL | 0.78 µg/mL | >100 µg/mL
5 | FC(OCC1COC(Cn2ccnc2)(c2ccc(F)cc2F)O1)=C(c1ccc2c(c1)OCO2)C(F)(F)F (mixture of isomers) [Ex. 62] | >100 µg/mL | 0.20 µg/mL | 12.5 µg/mL | 50.0 µg/mL | 12.5 µg/mL | 100 µg/mL | 3.13 µg/mL | 3.13 µg/mL | 0.78 µg/mL | 12.5 µg/mL | 0.78 µg/mL | 100 µg/mL | 25.0 µg/mL | 0.78 µg/mL | >100 µg/mL
6 | FC(OCC1COC(Cn2ccnc2)(c2ccc(F)cc2F)O1)=C(c1ccc(Oc2ccccc2)cc1)C(F)(F)F (mixture of isomers) [Ex. 63] | >100 µg/mL | 0.39 µg/mL | 25.0 µg/mL | >100 µg/mL | 50.0 µg/mL | >100 µg/mL | 25.0 µg/mL | 6.25 µg/mL | 1.56 µg/mL | 25.0 µg/mL | 1.56 µg/mL | >100 µg/mL | >100 µg/mL | 3.13 µg/mL | >100 µg/mL
7 | FC(OCC1COC(Cn2ccnc2)(c2ccc(F)cc2F)O1)=C(c1cccc(Cl)c1)C(F)(F)F (mixture of isomers) [Ex. 64] | 100 µg/mL | 0.20 µg/mL | 12.5 µg/mL | 25.0 µg/mL | 12.5 µg/mL | 50.0 µg/mL | 6.25 µg/mL | 1.56 µg/mL | 1.56 µg/mL | 6.25 µg/mL | 1.56 µg/mL | 100 µg/mL | 3.13 µg/mL | 0.78 µg/mL | 100 µg/mL
8 | FC(OCC1COC(Cn2ccnc2)(c2ccc(F)cc2F)O1)=C(c1cccc(F)c1)C(F)(F)F (mixture of isomers) [Ex. 65] | 12.5 µg/mL | ≦0.10 μg/ml | 12.5 µg/mL | 25.0 µg/mL | 12.5 µg/mL | 100 µg/mL | 6.25 µg/mL | 1.53 µg/mL | 1.56 µg/mL | 3.13 µg/mL | 1.56 µg/mL | 50.0 µg/mL | 3.13 µg/mL | 0.78 µg/mL | >100 µg/mL
9 | FC(OCC1COC(Cn2ccnc2)(c2ccc(F)cc2F)O1)=C(c1ccc(F)cc1)C(F)(F)F (mixture of isomers) [Ex. 66] | >100 µg/mL | ≦0.10 μg/ml | 12.5 µg/mL | 50.0 µg/mL | 12.5 µg/mL | 100 µg/mL | 6.25 µg/mL | 3.13 µg/mL | 0.39 µg/mL | 6.25 µg/mL | 0.78 µg/mL | 100 µg/mL | 6.25 µg/mL | 0.39 µg/mL | >100 µg/mL
